Molecular target: hMCH-1R (Homo sapiens (Human), UniProt Q99705)
Experiment: MCH-1 receptor binding test (125I-MCH binding to hMCH-1R transfected cell membranes)
Conditions: competition with 100 pM 125I-MCH, membranes of CHO/Galpha16 cells stably transfected with hMCH-1R
Experimental: Res Commun. […] After the incubation the reaction is filtered using a cell harvester through 0.5% PEI treated fibreglass filters (GF/B, Unifilter Packard). The membrane-bound radioactivity retained on the filter is then determined after the addition of scintillator substance (Packard Microscint 20) in a measuring device (TopCount of Packard). […] The analysis of the concentration binding curve is carried out on the assumption of one receptor binding site.

Sequence of hMCH-1R (Q99705 whole entry): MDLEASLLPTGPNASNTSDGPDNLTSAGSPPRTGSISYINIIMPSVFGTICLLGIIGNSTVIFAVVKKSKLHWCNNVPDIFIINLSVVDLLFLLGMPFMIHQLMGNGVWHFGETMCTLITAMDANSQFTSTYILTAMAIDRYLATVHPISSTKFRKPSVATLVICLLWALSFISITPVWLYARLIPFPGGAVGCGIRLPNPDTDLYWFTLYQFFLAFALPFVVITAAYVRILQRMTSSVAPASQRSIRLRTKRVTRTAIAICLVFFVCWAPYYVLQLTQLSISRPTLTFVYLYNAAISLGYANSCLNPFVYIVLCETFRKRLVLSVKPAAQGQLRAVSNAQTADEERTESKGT

| Structure (SMILES) | IC50 [µM] |
| --- | --- |
| Cc1cc(CN2CC(O)C2)ccc1C(=O)Cn1ccc(OCc2ccccc2)cc1=O [Example 1.1, 4-Benzyloxy-1-{2-[4-(3-hydroxy-azetidin-1-ylmethyl)-2-methyl-phenyl]-2-oxo-ethyl}-1H-pyridin-2-one] | 0.02 |
| CNCc1ccc(C(=O)Cn2ccc(OCc3ccccc3)cc2=O)c(C)c1 [Example 1.2, 4-Benzyloxy-1-[2-(2-methyl-4-methylaminomethyl-phenyl)-2-oxo-ethyl]-1H-pyridin-2-one] | 0.019 |
| Cc1cc(CN2CCC(O)CC2)ccc1C(=O)Cn1ccc(OCc2ccccc2)cc1=O [Example 1.3, 4-Benzyloxy-1-{2-[4-(4-hydroxy-piperidin-1-ylmethyl)-2-methyl-phenyl]-2-oxo-ethyl}-1H-pyridin-2-one] | 0.019 |
| Cc1cc(CN2CCOCC2)ccc1C(=O)Cn1ccc(OCc2ccccc2)cc1=O [Example 1.4] | 0.04 |
| Cc1cc(CN2CCN(C)CC2)ccc1C(=O)Cn1ccc(OCc2ccccc2)cc1=O [Example 1.5, 4-Benzyloxy-1-{2-[2-methyl-4-(4-methyl-piperazin-1-ylmethyl)-phenyl]-2-oxo-ethyl}-1H-pyridin-2-one] | 0.048 |
| Cc1cc(CN2CCC(CO)CC2)ccc1C(=O)Cn1ccc(OCc2ccccc2)cc1=O [Example 1.6, 4-Benzyloxy-1-{2-[4-(4-hydroxymethyl-piperidin-1-ylmethyl)-2-methyl-phenyl]-2-oxo-ethyl}-1H-pyridin-2-one] | 0.024 |
| Cc1cc(CN2CCCC2)ccc1C(=O)Cn1ccc(OCc2ccccc2)cc1=O [Example 1.7, 4-Benzyloxy-1-[2-(2-methyl-4-pyrrolidin-1-ylmethyl-phenyl)-2-oxo-ethyl]-1H-pyridin-2-one] | 0.011 |
| Cc1cc(CN2CCCCC2)ccc1C(=O)Cn1ccc(OCc2ccccc2)cc1=O [Example 1.9] | 0.011 |
| Cc1cc(CN2CCC(C)(O)C2)ccc1C(=O)Cn1ccc(OCc2ccccc2)cc1=O (centres unmarked) [Example 1.10, 4-Benzyloxy-1-{2-[4-(3-hydroxy-3-methyl-pyrrolidin-1-ylmethyl)-2-methyl-phenyl]-2-oxo-ethyl}-1H-pyridin-2-one] | 0.026 |
| Cc1cc(CN2CC[C@H](O)C2)ccc1C(=O)Cn1ccc(OCc2ccccc2)cc1=O [Example 1.11, (S)-4-Benzyloxy-1-{2-[4-(3-hydroxy-pyrrolidin-1-ylmethyl)-2-methyl-phenyl]-2-oxo-ethyl}-1H-pyridin-2-one] | 0.03 |
| CCNCc1ccc(C(=O)Cn2ccc(OCc3ccccc3)cc2=O)c(C)c1 [Example 1.12, 4-Benzyloxy-1-[2-(4-ethylaminomethyl-2-methyl-phenyl)-2-oxo-ethyl]-1H-pyridin-2-one] | 0.021 |
| Cc1cc(CN2CCC[C@H](O)C2)ccc1C(=O)Cn1ccc(OCc2ccccc2)cc1=O [Example 1.13, (S)-4-Benzyloxy-1-{2-[4-(3-hydroxy-piperidin-1-ylmethyl)-2-methyl-phenyl]-2-oxo-ethyl}-1H-pyridin-2-one] | 0.029 |
| Cc1cc(CN2CC[C@@H](O)C2)ccc1C(=O)Cn1ccc(OCc2ccccc2)cc1=O [Example 1.14] | 0.053 |
| Cc1cc(CN2CCC[C@@H](O)C2)ccc1C(=O)Cn1ccc(OCc2ccccc2)cc1=O [Example 1.15, (R)-4-Benzyloxy-1-{2-[4-(3-hydroxy-piperidin-1-ylmethyl)-2-methyl-phenyl]-2-oxo-ethyl}-1H-pyridin-2-one] | 0.031 |
| Cc1cc(CN2CCCC[C@@H]2CO)ccc1C(=O)Cn1ccc(OCc2ccccc2)cc1=O [Example 1.16] | 0.029 |
| Cc1cc(CN2CCC[C@H]2CO)ccc1C(=O)Cn1ccc(OCc2ccccc2)cc1=O [Example 1.17, (S)-4-Benzyloxy-1-{2-[4-(2-hydroxymethyl-pyrrolidin-1-ylmethyl)-2-methyl-phenyl]-2-oxo-ethyl}-1H-pyridin-2-one] | 0.026 |
| Cc1cc(CN2CC3CC(C2)C3O)ccc1C(=O)Cn1ccc(OCc2ccccc2)cc1=O (centres unmarked) [Example 1.18] | 0.016 |
| Cc1cc(CN2CCCC2)ccc1C(=O)Cn1ccc(OCc2ccc(F)cn2)cc1=O [Example 2.1, 4-(5-Fluoro-pyridin-2-ylmethoxy)-1-[2-(2-methyl-4-pyrrolidin-1-ylmethyl-phenyl)-2-oxo-ethyl]-1H-pyridin-2-one] | 0.067 |
| Cc1cc(CN2CCCCC2)ccc1C(=O)Cn1ccc(OCc2ccc(F)cn2)cc1=O [Example 2.2] | 0.116 |
| Cc1cc(CN2CCC(O)CC2)ccc1C(=O)Cn1ccc(OCc2ccc(F)cn2)cc1=O [Example 2.3] | 0.093 |
| Cc1cc(CN2CC[C@H](O)C2)ccc1C(=O)Cn1ccc(OCc2ccc(F)cn2)cc1=O [Example 2.4] | 0.07 |
| Cc1cc(CN(C)C)ccc1C(=O)Cn1ccc(OCc2ccc(F)cn2)cc1=O [Example 2.5] | 0.07 |
| CCNCc1ccc(C(=O)Cn2ccc(OCc3ccc(F)cn3)cc2=O)c(C)c1 [Example 2.6] | 0.134 |
| Cc1cc(CN2CCCCC2)ccc1C(=O)Cn1ccc(OCc2ccc(Cl)cn2)cc1=O [Example 3.6] | 0.026 |
| CNCc1ccc(C(=O)Cn2ccc(OCc3ccc(Cl)cn3)cc2=O)c(C)c1 [Example 3.10] | 0.037 |

The remaining lines, values ahead:

| IC50 [µM] | Structure (SMILES) |
| --- | --- |
| 0.079 | CCN1CCN(Cc2ccc(C(=O)Cn3ccc(OCc4ccc(Cl)cn4)cc3=O)c(C)c2)CC1 [Example 3.1, 4-(5-Chloro-pyridin-2-ylmethoxy)-1-{2-[4-(4-ethyl-piperazin-1-ylmethyl)-2-methyl-phenyl]-2-oxo-ethyl}-1H-pyridin-2-one] |
| 0.036 | Cc1cc(CN2CCC[C@H]2CO)ccc1C(=O)Cn1ccc(OCc2ccc(Cl)cn2)cc1=O [Example 3.2, 4-(5-Chloro-pyridin-2-ylmethoxy)-1-{2-[4-((S)-2-hydroxymethyl-pyrrolidin-1-ylmethyl)-2-methyl-phenyl]-2-oxo-ethyl}-1H-pyridin-2-one] |
| 0.039 | Cc1cc(CN2CC[C@H](O)C2)ccc1C(=O)Cn1ccc(OCc2ccc(Cl)cn2)cc1=O [Example 3.3] |
| 0.038 | Cc1cc(CN2CC[C@@H](O)C2)ccc1C(=O)Cn1ccc(OCc2ccc(Cl)cn2)cc1=O [Example 3.4, (R)-4-(5-Chloro-pyridin-2-ylmethoxy)-1-{2-[4-(3-hydroxy-pyrrolidin-1-ylmethyl)-2-methyl-phenyl]-2-oxo-ethyl}-1H-pyridin-2-one] |
| 0.084 | Cc1cc(CN2CCN(C)CC2)ccc1C(=O)Cn1ccc(OCc2ccc(Cl)cn2)cc1=O [Example 3.5] |
| 0.036 | Cc1cc(CN2CCC(O)CC2)ccc1C(=O)Cn1ccc(OCc2ccc(Cl)cn2)cc1=O [Example 3.7] |
| 0.026 | Cc1cc(CN2CCCC2)ccc1C(=O)Cn1ccc(OCc2ccc(Cl)cn2)cc1=O [Example 3.8, 4-(5-Chloro-pyridin-2-ylmethoxy)-1-[2-(2-methyl-4-pyrrolidin-1-ylmethyl-phenyl)-2-oxo-ethyl]-1H-pyridin-2-one] |
| 0.026 | CCNCc1ccc(C(=O)Cn2ccc(OCc3ccc(Cl)cn3)cc2=O)c(C)c1 [Example 3.11, 4-(5-Chloro-pyridin-2-ylmethoxy)-1-[2-(4-ethylaminomethyl-2-methyl-phenyl)-2-oxo-ethyl]-1H-pyridin-2-one] |
| 0.034 | Cc1cc(CN2CCC(CO)CC2)ccc1C(=O)Cn1ccc(OCc2ccc(Cl)cn2)cc1=O [Example 3.12] |
| 0.034 | Cc1cc(CN2CCC[C@@H](O)C2)ccc1C(=O)Cn1ccc(OCc2ccc(Cl)cn2)cc1=O [Example 3.13, (R)-4-(5-Chloro-pyridin-2-ylmethoxy)-1-{2-[4-(3-hydroxy-piperidin-1-ylmethyl)-2-methyl-pheny]-2-oxo-ethyl}-1H-pyridin-2-one] |
| 0.037 | Cc1cc(CN2CCCC[C@@H]2CO)ccc1C(=O)Cn1ccc(OCc2ccc(Cl)cn2)cc1=O [Example 3.14] |
| 0.031 | Cc1cc(CN2CC(O)C2)ccc1C(=O)Cn1ccc(OCc2ccc(Cl)cn2)cc1=O [Example 3.15, 4-(5-Chloro-pyridin-2-ylmethoxy)-1-{2-[4-(3-hydroxy-azetidin-1-ylmethyl)-2-methyl-phenyl]-2-oxo-ethyl}-1H-pyridin-2-one] |
| 0.019 | Cc1cc(CN2CC3CC(C2)C3O)ccc1C(=O)Cn1ccc(OCc2ccc(Cl)cn2)cc1=O (centres unmarked) [Example 3.16] |
| 0.016 | Cc1cc(CN2CCC(O)CC2)ccc1C(=O)Cn1ccc(OCc2ccc(Br)cn2)cc1=O [Example 4.2, 4-(5-Bromo-pyridin-2-ylmethoxy)-1-{2-[4-(4-hydroxy-piperidin-1-ylmethyl)-2-methyl-phenyl]-2-oxo-ethyl}-1H-pyridin-2-one] |
| 0.013 | Cc1cc(CN2CCC(CO)CC2)ccc1C(=O)Cn1ccc(OCc2ccc(Br)cn2)cc1=O [Example 4.3, 4-(5-Bromo-pyridin-2-ylmethoxy)-1-{2-[4-(4-hydroxymethyl-piperidin-1-ylmethyl)-2-methyl-phenyl]-2-oxo-ethyl}-1H-pyridin-2-one] |
| 0.018 | Cc1cc(CN2CCC[C@H](O)C2)ccc1C(=O)Cn1ccc(OCc2ccc(Br)cn2)cc1=O [Example 4.4, (S)-4-(5-Bromo-pyridin-2-ylmethoxy)-1-{2-[4-(3-hydroxy-piperidin-1-ylmethyl)-2-methyl-phenyl]-2-oxo-ethyl}-1H-pyridin-2-one] |
| 0.013 | Cc1cc(CN2CCC[C@H]2CO)ccc1C(=O)Cn1ccc(OCc2ccc(Br)cn2)cc1=O [Example 4.5, (S)-4-(5-Bromo-pyridin-2-ylmethoxy)-1-{2-[4-(2-hydroxymethyl-pyrrolidin-1-ylmethyl)-2-methyl-phenyl]-2-oxo-ethyl}-1H-pyridin-2-one] |
| 0.05 | CCNCc1ccc(C(=O)Cn2ccc(OCc3ccc(Br)cn3)cc2=O)c(C)c1 [Example 4.6, 4-(5-Bromo-pyridin-2-ylmethoxy)-1-[2-(4-ethylaminomethyl-2-methyl-phenyl)-2-oxo-ethyl]-1H-pyridin-2-one] |
| 0.014 | Cc1cc(CN2CCCC[C@@H]2CO)ccc1C(=O)Cn1ccc(OCc2ccc(Br)cn2)cc1=O [Example 4.7, (R)-4-(5-Bromo-pyridin-2-ylmethoxy)-1-{2-[4-(2-hydroxymethyl-piperidin-1-ylmethyl)-2-methyl-phenyl]-2-oxo-ethyl}-1H-pyridin-2-one] |
